As usually defined, the MIC is the lowest concentration found to suppress growth.

This passage reports MIC and viability results from ChEMBL document CHEMBL5143631, “nTZDpa (non-thiazolidinedione PPARγ partial agonist) derivatives retain antimicrobial activity without improving renal toxicity” (Bioorg Med Chem Lett, 2022).

Each structure is given as a SMILES string. In brackets after ≈: the same amount, converted by molar mass.

The test system of one data set is Staphylococcus aureus. In words: Antibacterial activity against Staphylococcus aureus assessed as inhibition of bacterial growth. In kind it is functional.
Data set [1] can be described thus: Toxicity in renal cells (unknown origin) assessed as cell viability at 64 ug/ml relative to control. In kind it is cell-based. The following applies: at 64 µg/mL, read-out: Activity.

For the molecule `O=C(O)c1c(Oc2ccc(I)cc2)c2cc(Cl)ccc2n1Cc1ccc(Cl)cc1`, the MIC in the data set on Staphylococcus aureus amounted to 1 µg/mL (≈ 1.86 µM). In addition, the viability at 64 ug/ml in data set [1] stood at 15%. For `CC(C)(C)c1ccc(Cn2c(C(=O)O)c(Oc3ccc(I)cc3)c3cc(Cl)ccc32)cc1`, the MIC in the data set with Staphylococcus aureus was determined as 1 µg/mL (≈ 1.79 µM). In data set [1], the viability at 64 ug/ml is 10%. `O=C(O)c1c(Oc2ccc(I)cc2)c2cc(Cl)ccc2n1Cc1ccc(Br)cc1`: the MIC with Staphylococcus aureus came out at 2 µg/mL (≈ 3.43 µM). In addition, the viability at 64 ug/ml in data set [1] is 15%.

In the case of `Cc1ccc(Cn2c(C(=O)O)c(Oc3ccc(I)cc3)c3cc(Cl)ccc32)cc1`, the MIC in the data set with Staphylococcus aureus came to 8 µg/mL (≈ 15.5 µM). Also, the viability at 64 ug/ml in data set [1] was 15%. For `O=C(O)c1c(Oc2ccc(I)cc2)c2cc(Cl)ccc2n1Cc1ccc(Cl)c(Cl)c1`, in that order: 4 µg/mL (≈ 6.99 µM) and 15%. Taken in the same sequence, the figures for `Clc1ccc(Cn2c(-c3nnn[nH]3)c(Oc3ccccc3)c3cc(Cl)ccc32)cc1` were 8 µg/mL (≈ 18.3 µM) and 20%. Consider `Clc1ccc(Cn2c(-c3nnn[nH]3)c(Oc3ccc(I)cc3)c3cc(Cl)ccc32)cc1`, for which the MIC in the data set on Staphylococcus aureus is > 64 µg/mL. Besides, the viability at 64 ug/ml in data set [1] stood at 25%. For the molecule `CN[C@H](CC(C)C)C(=O)N[C@H]1C(=O)N[C@@H](CC(N)=O)C(=O)N[C@H]2C(=O)N[C@H]3C(=O)N[C@H](C(=O)N[C@H](C(=O)O)c4cc(O)cc(O)c4-c4cc3ccc4O)[C@H](O)c3ccc(c(Cl)c3)Oc3cc2cc(c3O[C@@H]2O[C@H](CO)[C@@H](O)[C@H](O)[C@H]2O[C@H]2C[C@](C)(N)[C@H](O)[C@H](C)O2)Oc2ccc(cc2Cl)[C@H]1O` [VANCOMYCIN], the viability at 64 ug/ml in data set [1] is 65%. Turning to `O=C(O)CCNC(=O)c1c(Oc2ccccc2)c2cc(Cl)ccc2n1Cc1ccc(Cl)cc1`, in the data set on Staphylococcus aureus, the MIC amounted to 4 µg/mL (≈ 8.28 µM). For the same molecule, the viability at 64 ug/ml in data set [1] worked out at 20%. For `O=C(O)c1c(Oc2ccc(I)cc2)c2cc(Cl)ccc2n1-c1ccc(Cl)cc1`, in that order: 16 µg/mL (≈ 30.5 µM) and 20%. For `O=C(O)c1c(Oc2cccc(I)c2)c2cc(Cl)ccc2n1Cc1ccc(Br)cc1`, in that order: 8 µg/mL (≈ 13.7 µM) and 15%. For `O=C(O)c1c(Oc2cccc(I)c2)c2cc(Cl)ccc2n1Cc1ccc(Cl)cc1`, in that order: 1 µg/mL (≈ 1.86 µM) and 10%.

`O=C(O)CCNC(=O)c1c(Oc2ccc(I)cc2)c2cc(Cl)ccc2n1Cc1ccc(Cl)cc1`: the MIC in the data set on Staphylococcus aureus worked out at 32 µg/mL (≈ 52.5 µM). Also, in data set [1], the viability at 64 ug/ml was 15%.
